Legend:
Haemonchus contortus L3 = experiment: microbe, parasite or virus in culture; type: cell-based; conditions: Haemonchus contortus, 96 h, read-out: HcL3 Minimal Effective Concentration (MEC)
D. immitis microfilariae = experiment: Dirofilaria immitis, microfilariae (DiMF) in vitro motility assay; type: cell-based; conditions: Dirofilaria immitis, 72 h, read-out: DiMF minimally effective dose (MEC)

With N#Cc1ccc2c(c1)c1c(n2C(=O)NCc2ccnc(F)c2)CCN(C/C=C/c2ccc(F)cc2Br)C1 [Example 125, (E)-2-(3-(2-bromo-4-fluorophenyl)allyl)-8-cyano-N-((2-fluoropyridin-4-yl)methyl)-1,2,3,4-tetrahydro-5H-pyrido[4,3-b]indole-5-carboxamide] the minimal effective concentration (Haemonchus contortus L3) was 0.3 µM and the minimal effective concentration (D. immitis microfilariae) was > 100 µM.

In the case of N#Cc1cc2c3c(n(C(=O)NCc4ccnc(Cl)c4)c2cc1C(F)(F)F)CCN(C/C=C/c1ccc(Cl)cc1)C3 [Example 171, (E)-2-(3-(4-chlorophenyl)allyl)-N-((2-chloropyridin-4-yl)methyl)-8-cyano-7-(trifluoromethyl)-1,2,3,4-tetrahydro-5H-pyrido[4,3-b]indole-5-carboxamide], the minimal effective concentration (Haemonchus contortus L3) is reported as 0.5 µM and the minimal effective concentration (D. immitis microfilariae) is reported as 10 µM.

In the case of O=C(NCc1ccnc(Cl)c1)n1c2c(c3ccc(Cl)cc31)CN(C/C=C/c1ccc(F)cc1F)CC2 [Example 209, (E)-7-chloro-N-((2-chloropyridin-4-yl)methyl)-2-(3-(2,4-difluorophenyl)-allyl)-1,2,3,4-tetrahydro-5H-pyrido[4,3-b]indole-5-carboxamide], the minimal effective concentration (Haemonchus contortus L3) is reported as > 100 µM and the minimal effective concentration (D. immitis microfilariae) is reported as 33 µM.

COc1cc(CNC(=O)n2c3c(c4cc(C#N)ccc42)CN(C/C=C/c2ccc(Cl)c(Cl)c2)CC3)ccn1 [Example 69, (E)-8-cyano-2-(3-(3,4-dichlorophenyl)allyl)-N-((2-methoxypyridin-4-yl)methyl)-1,2,3,4-tetrahydro-5H-pyrido[4,3-b]indole-5-carboxamide] was tested, and the minimal effective concentration (Haemonchus contortus L3) was 0.02 µM and the minimal effective concentration (D. immitis microfilariae) was 0.03 µM.

O=C(NCc1ccnc(Cl)c1)n1c2c(c3cc(C(F)(F)F)ccc31)CN(C/C=C/c1ccc(Cl)c(F)c1)CC2 [Example 410, (E)-2-(3-(4-chloro-3-fluorophenyl)allyl)-N-((2-chloropyridin-4-yl)methyl)-8-(trifluoromethyl)-1,2,3,4-tetrahydro-5H-pyrido[4,3-b]indole-5-carboxamide] gave a minimal effective concentration (Haemonchus contortus L3) of 1.8 µM and a minimal effective concentration (D. immitis microfilariae) of 10 µM.

N#Cc1ccc2c(c1)c1c(n2C(=O)NCc2ccnc(Cl)c2)CCN(C/C=C/c2ccc(Br)c(F)c2)C1 [Example 85, (E)-2-(3-(4-bromo-3-fluorophenyl)allyl)-N-((2-chloropyridin-4-yl)methyl)-8-cyano-1,2,3,4-tetrahydro-5H-pyrido[4,3-b]indole-5-carboxamide] was tested, and the minimal effective concentration (Haemonchus contortus L3) was 0.1 µM and the minimal effective concentration (D. immitis microfilariae) was > 100 µM.

Compound CS(=O)(=O)c1ccc2c(c1)c1c(n2C(=O)NCc2ccnc(Cl)c2)CCN(C/C=C/c2ccc(Cl)c(Cl)c2)C1 [Example 458, (E)-N-((2-chloropyridin-4-yl)methyl)-2-(3-(3,4-dichlorophenyl)allyl)-8-(methylsulfonyl)-1,2,3,4-tetrahydro-5H-pyrido[4,3-b]indole-5-carboxamide] has a minimal effective concentration (Haemonchus contortus L3) of 5.7 µM and a minimal effective concentration (D. immitis microfilariae) of 3.3 µM.

With N#Cc1ccc2c3c(n(C(=O)NCc4ccnc(F)c4)c2c1)CCN(C/C=C/c1ccc(Cl)c(F)c1)C3 [Example 51, (E)-2-(3-(4-chloro-3-fluorophenyl)allyl)-7-cyano-N-((2-fluoropyridin-4-yl)methyl)-1,2,3,4-tetrahydro-5H-pyrido[4,3-b]indole-5-carboxamide] the minimal effective concentration (Haemonchus contortus L3) was 3.3 µM and the minimal effective concentration (D. immitis microfilariae) was 5.7 µM.

Compound O=C(NCc1ccnc(F)c1)n1c2c(c3ccc(OC(F)(F)F)cc31)CN(C/C=C/c1ccc(F)c(F)c1)CC2 [Example 376, (E)-2-(3-(3,4-difluorophenyl)allyl)-N-((2-fluoropyridin-4-yl)methyl)-7-(trifluoromethoxy)-1,2,3,4-tetrahydro-5H-pyrido[4,3-b]indole-5-carboxamide] has a minimal effective concentration (Haemonchus contortus L3) of 0.5 µM and a minimal effective concentration (D. immitis microfilariae) of 10 µM.

Compound O=C(NCc1ccnc(Cl)c1)n1c2c(c3cc(Br)c(Br)cc31)CN(C/C=C/c1ccc(Cl)cc1)CC2 [Example 198, (E)-7,8-dibromo-2-(3-(4-chlorophenyl)allyl)-N-((2-chloropyridin-4-yl)methyl)-1,2,3,4-tetrahydro-5H-pyrido[4,3-b]indole-5-carboxamide] has a minimal effective concentration (Haemonchus contortus L3) of 1 µM and a minimal effective concentration (D. immitis microfilariae) of 5.7 µM.

With N#Cc1ccc2c(c1)c1c(n2C(=O)NCc2ccnc(F)c2)CCN(C/C=C/c2ccc(Br)c(F)c2F)C1 [Example 111, (E)-2-(3-(4-bromo-2,3-difluorophenyl)allyl)-8-cyano-N-((2-fluoropyridin-4-yl)methyl)-1,2,3,4-tetrahydro-5H-pyrido[4,3-b]indole-5-carboxamide] the minimal effective concentration (Haemonchus contortus L3) was 0.3 µM and the minimal effective concentration (D. immitis microfilariae) was > 100 µM.

For O=C(NCc1ccnc(F)c1)n1c2c(c3c(F)cc(C(F)(F)F)cc31)CN(C/C=C/c1ccc(Cl)cc1)CC2 [Example 327, (E)-2-(3-(4-chlorophenyl)allyl)-9-fluoro-N-((2-fluoropyridin-4-yl)methyl)-7-(trifluoromethyl)-1,2,3,4-tetrahydro-5H-pyrido[4,3-b]indole-5-carboxamide], the minimal effective concentration (Haemonchus contortus L3) was > 100 µM and the minimal effective concentration (D. immitis microfilariae) was 10 µM.

With N#Cc1ccc2c3c(n(C(=O)NCc4ccnc(C5CC5)c4)c2c1)CCN(C/C=C/c1ccc(Cl)c(F)c1)C3 [Example 515, (E)-2-(3-(4-chloro-3-fluorophenyl)allyl)-7-cyano-N-((2-cyclopropylpyridin-4-yl)methyl)-1,2,3,4-tetrahydro-5H-pyrido[4,3-b]indole-5-carboxamide] the minimal effective concentration (Haemonchus contortus L3) was 1.8 µM and the minimal effective concentration (D. immitis microfilariae) was 13.5 µM.

Work on O=C(NCc1ccnc(Cl)c1)n1c2c(c3cc(Cl)ccc31)CN(C/C=C/c1ccc(C(F)(F)F)cc1)CC2 [Example 246, (E)-8-chloro-N-((2-chloropyridin-4-yl)methyl)-2-(3-(4-(trifluoromethyl)-phenyl)allyl)-1,2,3,4-tetrahydro-5H-pyrido[4,3-b]indole-5-carboxamide] yielded a minimal effective concentration (Haemonchus contortus L3) of 3.3 µM and a minimal effective concentration (D. immitis microfilariae) of 10 µM.

N#Cc1cccc2c1c1c(n2C(=O)NCc2ccnc(Cl)c2)CCN(C/C=C/c2ccc(Cl)cc2Cl)C1 [Example 4, (E)-N-((2-chloropyridin-4-yl)methyl)-9-cyano-2-(3-(2,4-dichlorophenyl)allyl)-1,2,3,4-tetrahydro-5H-pyrido[4,3-b]indole-5-carboxamide] was tested, and the minimal effective concentration (Haemonchus contortus L3) was > 100 µM and the minimal effective concentration (D. immitis microfilariae) was 10 µM.

Work on COc1cc2c(cc1Br)c1c(n2C(=O)NCc2ccnc(Cl)c2)CCN(C/C=C/c2ccc(Cl)cc2)C1 [Example 195, (E)-8-bromo-2-(3-(4-chlorophenyl)allyl)-N-((2-chloropyridin-4-yl)methyl)-7-methoxy-1,2,3,4-tetrahydro-5H-pyrido[4,3-b]indole-5-carboxamide] yielded a minimal effective concentration (Haemonchus contortus L3) of 0.5 µM and a minimal effective concentration (D. immitis microfilariae) of 5.7 µM.

In the case of O=C(NCc1ccnc(F)c1)n1c2c(c3cc(Cl)ccc31)CN(C/C=C/c1ccc(Cl)cc1F)CC2 [Example 255, (E)-8-chloro-2-(3-(4-chloro-2-fluorophenyl)allyl)-N-((2-fluoropyridin-4-yl)methyl)-1,2,3,4-tetrahydro-5H-pyrido[4,3-b]indole-5-carboxamide], the minimal effective concentration (Haemonchus contortus L3) is reported as 0.3 µM and the minimal effective concentration (D. immitis microfilariae) is reported as 18.2 µM.

In the case of O=C(NCc1ccnc(Cl)c1)n1c2c(c3cc(Br)ccc31)CN(C/C=C/c1ccc(F)cc1F)CC2 [Example 181, (E)-8-bromo-N-((2-chloropyridin-4-yl)methyl)-2-(3-(2,4-difluorophenyl)allyl)-1,2,3,4-tetrahydro-5H-pyrido[4,3-b]indole-5-carboxamide], the minimal effective concentration (Haemonchus contortus L3) is reported as 0.2 µM and the minimal effective concentration (D. immitis microfilariae) is reported as 32.3 µM.

CSc1ccc2c(c1)c1c(n2C(=O)NCc2ccnc(Cl)c2)CCN(C/C=C/c2ccc(Cl)c(F)c2)C1 [Example 445, (E)-2-(3-(4-chloro-3-fluorophenyl)allyl)-N-((2-chloropyridin-4-yl)methyl)-8-(methylthio)-1,2,3,4-tetrahydro-5H-pyrido[4,3-b]indole-5-carboxamide] showed a minimal effective concentration (Haemonchus contortus L3) of 0.5 µM and a minimal effective concentration (D. immitis microfilariae) of 33 µM.

Compound O=C(NCc1ccnc(F)c1)n1c2c(c3cc(Cl)c(Cl)cc31)CN(C/C=C/c1ccc(Cl)cc1)CC2 [Example 292, (E)-7,8-dichloro-2-(3-(4-chlorophenyl)allyl)-N-((2-fluoropyridin-4-yl)methyl)-1,2,3,4-tetrahydro-5H-pyrido[4,3-b]indole-5-carboxamide] has a minimal effective concentration (Haemonchus contortus L3) of 3.3 µM and a minimal effective concentration (D. immitis microfilariae) of 5.7 µM.

O=C(NCc1ccnc(F)c1)n1c2c(c3cc(F)c(Cl)cc31)CN(C/C=C/c1ccc(F)c(Cl)c1)CC2 [Example 313, (E)-7-chloro-2-(3-(3-chloro-4-fluorophenyl)allyl)-8-fluoro-N-((2-fluoro-pyridin-4-yl)methyl)-1,2,3,4-tetrahydro-5H-pyrido[4,3-b]indole-5-carboxamide] gave a minimal effective concentration (Haemonchus contortus L3) of 0.5 µM and a minimal effective concentration (D. immitis microfilariae) of 3.3 µM.

O=C(NCc1ccnc(Cl)c1)n1c2c(c3cc(Br)ccc31)CN(C/C=C/c1ccc(OC(F)(F)F)cc1)CC2 [Example 187, (E)-8-bromo-N-((2-chloropyridin-4-yl)methyl)-2-(3-(4-(trifluoromethoxy)phenyl)allyl)-1,2,3,4-tetrahydro-5H-pyrido[4,3-b]indole-5-carboxamide] was tested, and the minimal effective concentration (Haemonchus contortus L3) was 1.3 µM and the minimal effective concentration (D. immitis microfilariae) was > 100 µM.

O=C(NCc1ccnc(Cl)c1)n1c2c(c3cc(Cl)c(Cl)cc31)CN(C/C=C/c1ccc(F)c(F)c1)CC2 [Example 278, (E)-7,8-dichloro-N-((2-chloropyridin-4-yl)methyl)-2-(3-(3,4-difluorophenyl)allyl)-1,2,3,4-tetrahydro-5H-pyrido[4,3-b]indole-5-carboxamide] gave a minimal effective concentration (Haemonchus contortus L3) of 1.8 µM and a minimal effective concentration (D. immitis microfilariae) of 18.2 µM.

Compound O=C(NCc1ccnc(F)c1)n1c2c(c3ccc(OC(F)(F)F)cc31)CN(C/C=C/c1cc(F)cc(F)c1)CC2 [Example 378, (E)-2-(3-(3,5-difluorophenyl)allyl)-N-((2-fluoropyridin-4-yl)methyl)-7-(trifluoromethoxy)-1,2,3,4-tetrahydro-5H-pyrido[4,3-b]indole-5-carboxamide] has a minimal effective concentration (Haemonchus contortus L3) of 1.8 µM and a minimal effective concentration (D. immitis microfilariae) of 10 µM.

From US10570129B2 (Zoetis Services LLC, priority 2015, dated 2020)
